| Compound | melting point [°C] |
| --- | --- |
| Clc1ccc2c(c1)Oc1cc(Cl)c(Cl)cc1O2 | 162 |
| N#CC1(c2ccc(Cl)cc2)CCCCC1 | 88 to 92 |
| O=C1CCc2cc3c(cc2N1)NCCC3 | 235 |
| O=C(O)c1cc(F)cc2c1OCOC2 | 180 to 182 |
| FC(Cl)(Cl)C(Cl)Cl | -82.6 |
| CCc1c(Br)c(Br)c(Br)c(Br)c1Br | 138 |
| O=c1[nH]cccc1[N+](=O)[O-] | 232 |
| COc1ccc(P2(=S)Nn3c(nnc3C(F)(F)F)S2)cc1 (stereo unspecified) | 211 |
| O=C(O)c1cc2nccnc2s1 | 220 |
| O=C(O)C1OC(OCC(Cl)(Cl)Cl)C(O)C(O)C1O (stereo unspecified) | 142 |
| ICC(CI)(CI)CI | 225 |
| N#Cc1cc2cc3c4c(c2oc1=O)CCCN4CCC3 | 250 |
| CCC(O)C1CCCCN1 (stereo unspecified) | 121 |
| CCc1c(CC)c(CC)c(CC)c(CC)c1CC | 129 |
| CC(C)(C)OC(=O)N1CC[C@H]1C(=O)O | 105 to 110 |
| O=S1(=O)CCN(CN2CCS(=O)(=O)NC2)CN1 | 154 |
| C#CC(C)(C)NC(=O)c1cc(Cl)cc(Cl)c1 | 156 |
| O=C(O)c1cc(S(=O)(=O)O)ccc1O | 120 |
| C=C(C)CCC=C(C)C | -70 |
| N#Cc1cc(I)ccc1F | 72 |
| O=S(=O)(Nc1c(F)c(F)cc(F)c1F)C(F)(F)F | 95 |
| O=C(O)c1ccc(C(=O)O)c2c(C(=O)O)ccc(C(=O)O)c12 | 320 |
| CCC(C)c1ccc(O)cc1 (stereo unspecified) | 61.5 |

| Compound | melting point [°C] |
| --- | --- |
| Clc1cccc2ccccc12 | -2.5 |
| CCCCCC(C)CO (stereo unspecified) | -112 |
| C=CCOc1c(Br)cc(C(C)(C)c2cc(Br)c(OCC=C)c(Br)c2)cc1Br | 119 |
| COP(=O)(OC)OC=C(Cl)Cl | -60 |
| BrCc1cccc2cccnc12 | 81 to 82 |
| Sc1c(Cl)c(Cl)c(Cl)c(Cl)c1Cl | 232 |
| O=c1cc(C(F)(F)F)c2cc3c4c(c2o1)CCCN4CCC3 | 167 to 168 |
| CC1=C(C#N)C(c2cccc([N+](=O)[O-])c2)C(C(=O)OC(C)(C)C)=C(C)N1 (stereo unspecified) | 61 |
| O=C(Nc1ccc([N+](=O)[O-])cc1[N+](=O)[O-])C(C(F)(F)F)C(F)(F)F | 120 to 122 |
| CCOC(=O)CNc1nc(Cl)nc(NC(C)C)n1 | 110 |
| O=C(O)CCCCC1CCSS1 (stereo unspecified) | 60.5 |
| CC1CC2C3CC(F)C4=CC(=O)C=CC4(C)C3C(O)CC2(C)C1C(=O)CO (stereo unspecified) | 188 |
| CC(=O)NCCNC(C)=O | 174 |
| O=[N+]([O-])c1ccc(O)cc1C(F)(F)F | 76 |
| CC12CCC3C4CCC(=O)C(O)=C4CCC3C1CCC2O (stereo unspecified) | 189 |
| CC(=O)O[Si](OC(C)=O)(OC(C)=O)OC(C)=O | 110 |
| C#CC1(O)CCC2C3CCC4=CC(=O)CCC4C3CCC21C (stereo unspecified) | 204 |
| CCC(C=C1C(=O)C2(C)CCC1C2(C)C)C(=O)O (stereo unspecified) | 118 |
| CC(C)P(c1ccccc1)c1ccccc1 | 40 |
| Cc1cc(Br)cc(C)c1N=C=S | 79.5 |
| CN[C@H](CC(=O)O)C(=O)O | 187 to 192 |
| Sc1ccc(Cl)cc1 | 61 |
| Cc1cc(C(C)(C)C)c(O)c(C(C)(C)C)c1 | 71 |

Next, values leading:

| melting point [°C] | Compound |
| --- | --- |
| 203 | COc1ccccc1-c1nnc2n1NC(c1ccc(Cl)cc1)S2 (stereo unspecified) |
| 137 | Cc1cc(N=O)ccc1N=O |
| 66 | COC(=O)C1=C(C)c2ccccc2C1 |
| 106 to 107 | O=C1c2ccccc2C(=O)C1(Br)c1ccccc1 |
| 50 to 52 | Cc1nsc(-c2ccccc2)n1 |
| 91 | CCOC(=O)c1cc2ccccc2oc1=S |
| 105 to 108 | NS(=O)(=O)c1ccc(Sc2cccs2)s1 |
| 73 | COc1cc(CCl)ccc1OCc1ccccc1 |
| 162 to 164 | CCC1Oc2ccccc2C(=O)NC1=O (stereo unspecified) |
| 239 | Cc1nc2ccccc2nc1-c1cc(-c2nc3ccccc3nc2C)c([N+](=O)[O-])cc1[N+](=O)[O-] |
| 96 to 100 | CC(=O)OC[C@H]1O[C@@H](OCc2ccccc2)[C@H](OC(C)=O)[C@@H](OC(C)=O)[C@@H]1OC(C)=O |
| 123 to 124 | Cc1ccc(C(=O)C(=O)c2ccc(Cl)cc2)cc1 |
| 189 | COC1(OC)c2ccccc2C(O)(c2ccccc2)c2ccccc21 |
| 156 | CC1(C)OC(=O)C(=Cc2ccc(Cl)cc2Cl)C(=O)O1 |
| 250 to 255 | O=C(O)C1CCC(c2ccc(Cl)cc2)CC1 (stereo unspecified) |
| 114 | O=C(O)CCCCC=C(c1ccccc1)c1cccnc1 |
| 49 | O=C(c1ccccc1)N1CCCCC1 |
| 99 to 102 | CN1C(c2cccnc2)N(C)[C@@H](c2ccccc2)[C@@H]1c1ccccc1 |
| 232 | c1ccc2c(c1)-c1cc3ccccc3c3cc4ccccc4c-2c13 |
| 245 | O=Nc1ccc(O)c2ncccc12 |
| 232 | c1ccc(-c2nc[nH]c2-c2ccccc2)cc1 |
| 120 | Cc1ccc(C(=O)C2=NOC3C(=O)N(c4ccc(O)cc4)C(=O)C23)cc1 (stereo unspecified) |
| 219 | COc1cccc2cc(C(=O)O)oc12 |

| melting point [°C] | Compound |
| --- | --- |
| 173 | CC(=O)Nc1ccc(CC(=O)O)cc1 |
| 67 to 69 | Cc1ccc(C#N)cc1C |
| 77 | N#CCc1ccccc1OCc1ccccc1 |
| 179 | COc1ccc(C(=O)c2nn3c(nc(=O)c4ccccc43)s2)cc1 |
| 111 to 115 | Cc1ccccc1NC(=O)C(C)(C)C |
| 253 to 255 | O=C1OC2(c3ccc(Cl)cc3Oc3cc(Cl)ccc32)c2ccccc21 |
| 7 | CCCc1ccccc1O |
| 76 to 78 | CC(C)(C)c1ccc(S(=O)(=O)NCCBr)cc1 |
| 192 to 193 | O=c1[nH]c2ccc(Cl)cc2o1 |
| 148 to 151 | O=C1c2ccccc2S(=O)(=O)N1Cl |
| 109 to 110 | CSC(=NS(=O)(=O)c1ccc(C)cc1)SC |
| 109 | COc1ccc(/C=C(\C#N)c2nc(-c3ccco3)cs2)cc1 |
| 95 to 97 | COc1ccccc1C(=O)c1cc2c(cc1Br)OCCO2 |
| 60 | COC(=O)C(c1ccccc1)c1ccccc1 |
| 167 | O=C1CC(=P(c2ccccc2)(c2ccccc2)c2ccccc2)C(=O)O1 |
| 97 | Sc1ccc(S)cc1 |
| 37 to 40 | CN(C)CCOc1ccccc1N |
| 141 | COc1cccc(C2C(C(=O)OC(C)C)=C(C)NC(C)=C2C(=O)OC(C)C)c1OC |
| 190 | C[C@@H]1C(=O)[C@H](C)[C@@H](c2ccc(Cl)cc2)O[C@H]1c1ccc(Cl)cc1 |
| 138 | COc1c(OC)c(OC(C)=O)c2ccccc2c1OC(C)=O |
| 222 | Cc1ccc(Cn2ncc3c(N)ncnc32)cc1 |
| 175 | N#C/C(=N/Nc1ccccc1)c1nc(-c2ccccc2)cs1 |
